Data: ChEMBL document CHEMBL2407078, “Indole-diterpenoids with anti-H1N1 activity from the aciduric fungus Penicillium camemberti OUCMDZ-1492” (J Nat Prod, 2013)

Tested on: Influenza A virus (A/Puerto Rico/8/1934(H1N1))
Test: Antiviral activity against Influenza A virus (A/Puerto Rico/8/34(H1N1)) PR/8 infected in MDCK cells assessed as protection against virus-induced cytopathogenicity after 48 hrs by crystal-violet staining-based assay
Assay type: functional, organism-based
Conditions: PR/8, MDCK

Compound | IC50 [µM]
CC(C)(O)[C@H]1O[C@H]2CC[C@@]3(C)[C@@H](CC[C@H]4Cc5c([nH]c6ccccc56)[C@@]43C)[C@]2(O)[C@H](O)[C@H]1O | 32.2
CC(O)(CO)[C@H]1O[C@H]2CC[C@@]3(C)[C@@](O)(CC[C@H]4Cc5c([nH]c6ccccc56)[C@@]43C)C2=CC1=O (some centres not stated) | 125
CC(C)=CCc1cc2[nH]c3c(c2cc1CC=C(C)C)C[C@@H]1CC[C@@]2(O)C4=CC(=O)[C@@H](C(C)(C)O)O[C@H]4CC[C@]2(C)[C@@]31C | 73.3
CC(C)=CCC[C@](C)(O)[C@H](O)CC/C(C)=C/CC/C(C)=C/Cc1c[nH]c2ccccc12 | 34.1
CC(C)=CCc1ccc2[nH]c3c(c2c1)C[C@@H]1CC[C@@]2(O)C4=CC(=O)[C@@H](C(C)(C)O)O[C@H]4CC[C@]2(C)[C@@]31C | 6.6
CC(C)(O)[C@@H]1CC[C@]2(C(=O)O)[C@H](CC[C@@]3(C)[C@H]2CC[C@H]2Cc4c([nH]c5ccccc45)[C@@]23C)O1 | 38.9
CC(C)(O)[C@@H]1CC=C2[C@H](CC[C@@]3(C)[C@H]2CC[C@H]2Cc4c([nH]c5ccccc45)[C@@]23C)O1 | 28.3
CC(C)(O)[C@H]1O[C@H]2CC[C@@]3(C)[C@@H](CC[C@H]4Cc5c([nH]c6ccccc56)[C@@]43C)C2=CC1=O [DEHYDROXYPAXILLINE] | > 150
CC(C)=CCC[C@]1(C)[C@@H](O)CC[C@@]2(C)[C@H]1CC[C@H]1Cc3c([nH]c4ccccc34)[C@@]12C [EMINDOLE SB] | 26.2
CC(C)(O)[C@@H]1CC[C@]2(C)[C@H](CC[C@@]3(C)[C@H]2CC[C@H]2Cc4c([nH]c5ccccc45)[C@@]23C)O1 [PASPALINE] | 77.9
CC(C)(O)[C@H]1O[C@H]2CC[C@@]3(C)[C@@](O)(CC[C@H]4Cc5c([nH]c6ccccc56)[C@@]43C)C2=CC1=O [PAXILLINE] | 17.7
NC(=O)c1ncn([C@@H]2O[C@H](CO)[C@@H](O)[C@H]2O)n1 [RIBAVIRIN] | 113
